The values below are quoted from earlier work in US6814987B2, “Compositions and methods of use for extracts of magnoliaceae plants” (NPI, LLC., priority 2000, dated 2004).

Read-outs that look alike come from different tables or passages of the source. Where only a bound is given, the exact number is not on record here.

Data set [1] has as its system mice.

In the case of `C=CCc1ccc(O)c(-c2ccc(O)c(CC=C)c2)c1` [honokiol], the “duration of muscle relaxing effect” value (250 mg/kg) is 3 h. Moreover, the observed effect result (500 mg/kg) is reported as “loss of righting reflex”.

In the case of `C=CCc1ccc(O)c(-c2cc(CC=C)ccc2O)c1` [magnolol], in data set [1] (63 mg/kg intraperitoneally), the observed effects entry is “hypomotility, ptosis, and sedation”. Moreover, in data set [1] (125 mg/kg), the “duration of effects after injection” value is 2 h; the observed effects entry was “sedation, ataxia, and prominent muscle relaxation”. Also, in data set [1] (250 mg/kg), the “duration of muscle relaxation” value is listed as “over 3 hr”, the time to ataxia was no more than 10 min and the “time to loss of righting reflex” value is 40 min.
